Results published in ChEMBL document CHEMBL3046714, “Synthesis and Precocious Metamorphosis-Inducing Activity of 3-(1-Alkenyl) pyridines” (J Pestic Sci, 2000).

Assays:
[1] = Toxicity in Bombyx mori Shunrei x Shougetsu fourth-instar larvae assessed as mortality at 160 ug applied topically; type: organism-based; conditions: in vivo, topical or ocular
Bombyx mori [2] = assay: Precocious metamorphosis-inducing activity in Bombyx mori Shunrei x Shougetsu fourth-instar larvae assessed as change in body weight at >80 ug applied topically measured every 12 hr during fourth-instar period; type: functional
Bombyx mori [3] = assay: Precocious metamorphosis-inducing activity in Bombyx mori Shunrei x Shougetsu fourth-instar larvae assessed as change in body weight compound applied topically measured every 12 hr during fourth-instar period; type: functional
Bombyx mori [4] = assay: Precocious metamorphosis-inducing activity in Bombyx mori Shunrei x Shougetsu fourth-instar larvae assessed as change in body weight at >160 ug applied topically measured every 12 hr during fourth-instar period; type: functional

Compound | mortality [1] | Activity (Bombyx mori [2]) | ED50 (Bombyx mori [3]) | Activity (Bombyx mori [4])
C(=C/c1cccnc1)/c1ccccc1 | 100% | 7% | >80 µg | –
C(=C\c1cccnc1)/c1ccccc1 | – | – | >160 µg | 9%
CCCCCC=C(c1ccccc1)c1cccnc1 | – | – | >160 µg | 35%
CCCCC=C(c1ccccc1)c1cccnc1 | – | – | 102 µg | –
CC(C)CC=C(c1ccccc1)c1cccnc1 | – | – | 34 µg | –
CCCC=C(c1ccccc1)c1cccnc1 | – | – | 50 µg | –
CCC=C(c1ccccc1)c1cccnc1 | – | – | 29 µg | –
CC(=Cc1ccccc1)c1cccnc1 | – | – | 42 µg | –
C(=C(c1ccccc1)c1cccnc1)c1ccccc1 | – | – | 144 µg | –
CC=C(c1ccccc1)c1cccnc1 | – | – | 26 µg | –
CC=C(C)c1cccnc1 | – | – | >160 µg | 20%
C=C(c1ccccc1)c1cccnc1 | – | – | 56 µg | –
CCOC(=O)/C=C/c1cccnc1 | – | – | >160 µg | 0%
CC=Cc1cccnc1 | – | – | >160 µg | 0%
CCOC(=O)/C=C(/C)c1cccnc1 | – | – | >160 µg | 0%
CCOC(=O)C=C(c1ccccc1)c1cccnc1 | – | – | 89 µg | –
CCOC(=O)/C=C(\C)c1cccnc1 | – | – | >160 µg | 5%
CC(C)C=C(c1ccccc1)c1cccnc1 | – | – | 27 µg | –
CCC(c1ccccc1)c1cccnc1 (racemic) | – | – | 42 µg | –
